Assay results reported in patent US7919624B2, “VR1 vanilloid receptor antagonists with a iononic substructure” (Pharmeste S.R.L., priority 2006, dated 2011).

What was measured:
[1] = biological target: T1, TRPV1 expressed in rat spinal cord (Rattus norvegicus, UniProt O35433); assay: Radioligand binding assay, [3H]-RTX, rat spinal cord membranes; details: 37° C. 60 min, range in brackets; for Ki: [3H]RTX 0.4 nM, read-out: Ki value, competition binding of [3H]-RTX
T1 construct: the spinal cord was removed and disrupted using a Polytron tissue homogenizer; from tissue; host or cells: spinal cord membranes of male Sprague-Dawley rats
T1 sequence (O35433 whole entry): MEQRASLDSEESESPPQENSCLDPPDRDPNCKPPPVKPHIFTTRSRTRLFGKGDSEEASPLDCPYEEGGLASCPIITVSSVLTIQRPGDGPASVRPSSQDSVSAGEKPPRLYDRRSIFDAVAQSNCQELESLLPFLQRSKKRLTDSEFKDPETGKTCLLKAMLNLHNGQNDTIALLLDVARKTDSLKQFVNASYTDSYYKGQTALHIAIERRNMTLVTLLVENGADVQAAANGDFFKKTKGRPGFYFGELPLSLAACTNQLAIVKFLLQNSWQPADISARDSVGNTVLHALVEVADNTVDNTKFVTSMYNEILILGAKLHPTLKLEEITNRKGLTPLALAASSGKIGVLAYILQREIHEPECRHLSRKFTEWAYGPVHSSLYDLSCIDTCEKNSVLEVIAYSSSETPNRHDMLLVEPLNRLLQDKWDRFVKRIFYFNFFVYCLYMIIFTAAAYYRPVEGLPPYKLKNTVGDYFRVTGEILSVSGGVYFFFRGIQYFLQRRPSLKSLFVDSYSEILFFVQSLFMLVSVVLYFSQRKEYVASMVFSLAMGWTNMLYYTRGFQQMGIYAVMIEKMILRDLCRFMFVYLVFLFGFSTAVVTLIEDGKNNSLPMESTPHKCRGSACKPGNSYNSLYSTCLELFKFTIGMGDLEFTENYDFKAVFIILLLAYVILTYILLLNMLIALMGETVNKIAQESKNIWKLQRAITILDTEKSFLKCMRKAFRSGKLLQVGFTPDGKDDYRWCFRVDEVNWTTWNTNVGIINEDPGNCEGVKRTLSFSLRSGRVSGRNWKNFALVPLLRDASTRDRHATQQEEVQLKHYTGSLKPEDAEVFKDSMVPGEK
Experimental: Radioligand Binding Assay
Male Sprague-Dawley rats with body weight between 250 and 350 g at the time for testing were used. For binding assays rats were sacrificed by decapitation under anesthesia and the spinal cord was removed and disrupted using a Polytron tissue homogenizer in ice cold buffer containing 5 mM KCl, 5.8 mM NaCl, 0.75 mM CaCl2, 2 mM MgCl2, 320 mM sucrose, 10 mM Hepes, pH 8.6.^5 The homogenized tissue was centrifuged at 1000×g for 10 min at 4° C. and the supernatant was centrifuged again at 35000×g for 30 min at 4° C. (Beckman Avanti J25). The pellet was resuspended in the same buffer described above and used in binding experiments. In saturation experiments, 150 μg protein/sample from membrane suspensions were incubated with [^3H]-resiniferatoxin ([^3H]-RTX) (0.003-3 nM) in the assay buffer containing 0.25 mg/ml fatty acid-free bovine serum albumin at 37° C. for 60 min. In competition experiments, the membranes were incubated at 37° C. for 60 min with [^3H]RTX (0.4 nM) and increasing concentrations of the examined compounds in the range from 0.1 nM to 3 μM. Non-specific binding was defined in the presence of 1 μM RTX. After incubation, the reaction mixture was cooled at 0° C. and incubated with bovine α1-acid glycoprotein (200 μg per tube) for 15 min to reduce non-specific RTX binding. Membrane-bound RTX was separated from free RTX through centrifugation of the samples at 18500×g for 15 min. The tip of the microcentrifuge tube containing the pellet was cut off and radioactivity was determined by scintillation counting (Packard 2500 TR). Protein concentration was determined according to a Bio-Rad method with bovine serum albumin as reference standard (Bradford, 1976). Saturation and competition studies were analysed with the program Ligand.^6

[2] = biological target: T2, TRPV1 expressing neurons (rat trigeminal neurons) (Rattus norvegicus, UniProt O35433); assay: Ca2+ fluorescence measurements in cultured rat trigeminal ganglia; assay type: cell-based; details: 0.1 μM capsaicin, mean and 95% fiducial limits, read-out: IC50 inhibiting capsaicin-evoked [Ca2+]i mobilization
T2 construct: Two-days old Newborn rats were terminally anaesthetized and decapitated; Trigeminal ganglia were removed; endogenous in cells; host or cells: primary cultured trigeminal ganglion neurons from newborn Sprague-Dawley rats
T2 sequence (O35433 whole entry): as above
Experimental: Ca^2+ Fluorescence Measurements in Cultured rat Trigeminal Ganglia
Two-days old Newborn rats were terminally anaesthetized and decapitated. Trigeminal ganglia were removed and rapidly placed in a cold phosphate buffered solution (PBS) before being transferred to collagenase/dispase (1 mg/ml dissolved in Ca^2+- Mg^2+-free PBS) for 35 min at 37° C.^7 After the enzymatic treatment the ganglia were rinsed three times with Ca^2+- Mg^2+-free PBS and then placed in 2 ml of cold DMEM supplemented with 10% fetal bovine serum (FBS, heat inactivated), 2 mM L-glutamine, 100 μ/ml penicillin and 100 μg/ml streptomycin. The ganglia were dissociated into single cells by several passages through a series of syringe needles (23G down to 25G). Finally, the medium and the ganglia cells were sieved through a 40 μm filter to remove debris and topped up with 8 ml of DMEM medium and centrifuged (200×g for 5 min). The final cell pellet was re-suspended in DMEM medium [supplemented with 100 ng/ml mouse Nerve Growth Factor (mouse-NGF-7S) and cytosine-β-D-arabinofuranoside free base (ARA-C) 2.5 μM]. Cells were plated on poly-L-lysine-(8.3 μM) and laminin-(5 μM) coated 25 mm glass cover slips and kept for 5 to 8 days at 37° C. in a humidified incubator gassed with 5% CO2 and air. Plated neurons were loaded with Fura-2-AM-ester (3 μM) in Ca^2+ buffer solution of the following composition (mM): CaCl2 1.4, KCl 5.4, MgSO4 0.4, NaCl 135, D-glucose 5, HEPES 10 with BSA (0.1%), at pH 7.4, for 40 min at 37° C. The plated neurons were then washed twice with the Ca^2+ buffer solution and transferred to a chamber on the stage of Nikon eclipse TE300 microscope. Fura-2-AM-ester was excited at […] to indicate relative [Ca^2+]i changes by the F340/F380 ratio recorded with a dynamic image analysis system (Laboratory Automation 2.0, RCS, Florence, Italy). After transferring the plated neurons to the chamber, they were allowed (at least 10 min) to attain a stable fluorescence before beginning the experiment. A calibration curve was performed using buffer containing Fura-2-AM-ester and determinant concentrations of free Ca^2+.
The results are expressed as mean and 95% fiducial limits.

[3] = system: capsaicin-induced tactile allodynia; assay: Capsaicin-induced secondary allodynia in rat; assay type: in vivo; details: 10 mg/kg orally 2 hours prior to capsaicin (20 nmols/50 μl/paw), 90 min after capsaicin challenge
Experimental: Capsaicin-induced Secondary Allodynia in Rat
Capsaicin (20 nmols/50 μl/paw) was injected in the plantar surface of the glabrous skin of the right paw of rats anesthetized with diethyl ether (Chaplan et al., 1994). Compound Id was orally administered (10 mg/kg) 2 hours prior to capsaicin injection. Tactile allodynia was evaluated 90 min after capsaicin challenge.

| Ki [1] | IC50 [2] | Structure (SMILES) | preventive effect against the pro-allodinic effect of capsaicin [3] | Kd ([1]; [3H]-RTX 0.003-3 nM, read-out: KD value, saturation curve of [3H]-RTX) |
| --- | --- | --- | --- | --- |
| 0.027 µM | 0.0182 µM | CC1=C(/C=C/C(=O)Nc2cccc3cnccc23)C(C)(C)CCC1Oc1ccc(Cl)cc1 (stereo not shown) [Compound Id, (2E)-3-(3-(4-chlorophenoxy)-2,6,6-trimethylcyclohex-1-enyl)-N-(isoquinolin-5-yl)acrylamide] | 54% | – |
| 0.00814 µM | 0.00038 µM | CC1=C(/C=C/C(=O)Nc2cccc3cnccc23)C(C)(C)CCC1Oc1cccc(F)c1 (stereo not shown) [If, (2E)-3-(3-(3-fluorophenoxy)-2,6,6-trimethylcyclohex-1-enyl)-N-(isoquinolin-5-yl)acrylamide] | – | – |
| 0.0148 µM | 0.00525 µM | CC1=C(/C=C/C(=O)Nc2cccc3cnccc23)C(C)(C)CCC1Oc1ccc(F)cc1 (stereo not shown) [Ie, (2E)-3-(3-(4-fluorophenoxy)-2,6,6-trimethylcyclohex-1-enyl)-N-(isoquinolin-5-yl)acrylamide] | – | – |

The next lines start with the compound.

| Structure (SMILES) | Ki [1] | IC50 [2] | preventive effect against the pro-allodinic effect of capsaicin [3] | Kd ([1]; [3H]-RTX 0.003-3 nM, read-out: KD value, saturation curve of [3H]-RTX) |
| --- | --- | --- | --- | --- |
| CC1=C(/C=C/C(=O)Nc2cccc3cnccc23)C(C)(C)CCC1Oc1ccc(F)c(F)c1 (stereo not shown) [Ig, (2E)-3-(3-(3,4-difluorophenoxy)-2,6,6-trimethylcyclohex-1-enyl)-N-(isoquinolin-5-yl)acrylamide] | 0.0103 µM | 0.00065 µM | – | – |
| COC1CCC(C)(C)C(/C=C/C(=O)Nc2cccc3cnccc23)=C1C (stereo not shown) [Ib, (2E)-N-(isoquinolin-5-yl)-3-(3-methoxy-2,6,6-trimethylcyclohex-1-enyl)acrylamide] | 0.0262 µM | 0.0284 µM | – | – |
| CC1=C(/C=C/C(=O)Nc2cccc3cnccc23)C(C)(C)CCC1 [Ia, (2E)-N-(isoquinolin-5-yl)-3-(2,6,6-trimethylcyclohex-1-enyl)acrylamide] | 0.066 µM | 0.044 µM | – | – |
| CC1=C(/C=C/C(=O)Nc2cccc3cnccc23)C(C)(C)CCC1Oc1ccccc1 (stereo not shown) [Ic, (2E)-N-(isoquinolin-5-yl)-3-(2,6,6-trimethyl-3-phenoxycyclohex-1-enyl)acrylamide] | 0.00493 µM | 0.00212 µM | – | – |
| C=C(C)[C@]12C[C@@H](C)[C@@]34O[C@](Cc5ccccc5)(O[C@@H]1[C@@H]3C=C(COC(=O)Cc1ccc(O)c(OC)c1)C[C@]1(O)C(=O)C(C)=C[C@@H]41)O2 [[^3H]-RTX, [^3H]-resiniferatoxin, reference compound] | – | – | – | 0.00021 µM |
